Measurements as given in US7589097B2, “Triazol[4,5-d] pyramidine derivatives and their use as purinergic receptor antagonists” (Vernalis Research Limited, priority 2001, dated 2009).

Row | Compound | melting point
1 | C=CCOCc1cccc(Cn2nnc3c(-c4ccc(C)o4)nc(N)nc32)n1 [Example 186, 3-(6-allyloxymethyl-2-pyridylmethyl)-7-(5-methyl-2-furyl)-3H-[1,2,3]triazolo[4,5-d]pyrimidine-5-amine] | 149 to 149.3 °C
2 | Cc1cc(Cn2nnc3c(-c4ccco4)nc(N)nc32)c2[nH]ccc2c1 [Example 243, 7-(2-furyl)-3-(5-methyl-7-indolylmethyl)-3H-[1,2,3]triazolo[4,5-d]pyrimidine-5-amine] | > 300 °C (dec.)
3 | Nc1nc(-c2ccco2)c2nnn(Cc3ccc(F)c(N)c3)c2n1 [Example 165, 3-(3-amino-4-fluorobenzyl)-7-(2-furyl)-3H-[1,2,3]triazolo[4,5-d]pyrimidine-5-amine] | 259.7 to 259.8 °C
4 | Nc1nc(-c2cccs2)c2nnn(Cc3ccccc3F)c2n1 [Example 35, 3-(2-fluorobenzyl)-7-(2-thienyl)-3H-[1,2,3]triazolo[4,5-d]pyrimidine-5-amine] | 174 to 174.2 °C
5 | CC(=O)NCc1cccc(Cn2nnc3c(-c4ccco4)nc(N)nc32)n1 [Example 177, 3-(6-Acetamidomethyl-2-pyridylmethyl)-7-(2-furyl)-3H-[1,2,3]triazolo[4,5-d]pyrimidine-5-amine] | 245.9 to 247 °C
6 | CC(C)OCc1cccc(Cn2nnc3c(-c4ccco4)nc(N)nc32)n1 [Example 247, 7-(2-furyl)-3-(6-isopropoxymethyl-2-pyridylmethyl)-3H-[1,2,3]triazolo[4,5-d]pyrimidine-5-amine] | 134.5 to 134.6 °C
7 | Nc1nc(-c2ccco2)c2nnn(Cc3cccc4[nH]ccc34)c2n1 [Example 139, 7-(2-furyl)-3-(4-indolylmethyl)-3H-[1,2,3]triazolo[4,5-d]pyrimidine-5-amine] | 192.3 to 193.5 °C
8 | Nc1nc(-c2ccccc2)c2nnn(Cc3cccc([N+](=O)[O-])c3)c2n1 [Example 130, 3-(3-nitrobenzyl)-7-phenyl-3H-[1,2,3]triazolo[4,5-d]pyrimidine-5-amine] | 149 to 149.6 °C
9 | Cc1cccc(Cn2nnc3c(-c4ccc(C)o4)nc(N)nc32)n1 [Example 59, 7-(5-methyl-2-furyl)-3-(6-methyl-2-pyridylmethyl)-3H-[1,2,3]triazolo[4,5-d]pyrimidine-5-amine] | 187.9 to 188.7 °C
10 | Cc1nc(-c2nc(N)nc3c2nnn3Cc2cccc(N)c2)sc1C [Example 240, 3-(3-aminobenzyl)-7-(4,5-dimethyl-2-thiazolyl)-3H-[1,2,3]triazolo[4,5-d]pyrimidine-5-amine] | 254.3 to 254.5 °C
11 | CC(=O)Nc1cccc(Cn2nnc3c(-c4ccco4)nc(N)nc32)c1 [Example 160] | 277.4 to 277.9 °C

Results, then the compound that gave them:

Row | melting point | Compound
12 | 212.1 to 214.3 °C | COc1ccccc1Cn1nnc2c(-c3ccco3)nc(N)nc21 [Example 77, 7-(2-furyl)-3-(2-methoxybenzyl)-3H-[1,2,3]triazolo[4,5-d]pyrimidine-5-amine]
13 | 196.9 to 197.1 °C | Nc1nc(-c2ccco2)c2nnn(Cc3ccccn3)c2n1 [Example 24, 7-(2-Furyl)-3-(2-pyridylmethyl)-3H-[1,2,3]triazolo[4,5-d]pyrimidine-5-amine]
14 | 249.9 to 250.5 °C | Cc1ccc(N)c(Cn2nnc3c(-c4ccco4)nc(N)nc32)c1 [Example 104, 3-(2-amino-5-methylbenzyl)-7-(2-furyl)-3H-[1,2,3]triazolo[4,5-d]pyrimidine-5-amine]
15 | 201.1 to 201.2 °C | COc1ccnc(Cn2nnc3c(-c4ccco4)nc(N)nc32)c1 [Example 63, 7-(2-furyl)-3-(4-methoxy-2-pyridylmethyl)-3H-[1,2,3]triazolo[4,5-d]pyrimidine-5-amine]
16 | 191.4 to 192 °C | COc1cccc(Cn2nnc3c(-c4ccco4)nc(N)nc32)n1 [Example 32, 7-(2-furyl)-3-(6-methoxy-2-pyridylmethyl)-3H-[1,2,3]triazolo[4,5-d]pyrimidine-5-amine]
